The target of data set [1] is T1, Solute carrier organic anion transporter family member 1A4 (Rattus norvegicus, UniProt O35913).
T1 sequence (O35913 whole entry): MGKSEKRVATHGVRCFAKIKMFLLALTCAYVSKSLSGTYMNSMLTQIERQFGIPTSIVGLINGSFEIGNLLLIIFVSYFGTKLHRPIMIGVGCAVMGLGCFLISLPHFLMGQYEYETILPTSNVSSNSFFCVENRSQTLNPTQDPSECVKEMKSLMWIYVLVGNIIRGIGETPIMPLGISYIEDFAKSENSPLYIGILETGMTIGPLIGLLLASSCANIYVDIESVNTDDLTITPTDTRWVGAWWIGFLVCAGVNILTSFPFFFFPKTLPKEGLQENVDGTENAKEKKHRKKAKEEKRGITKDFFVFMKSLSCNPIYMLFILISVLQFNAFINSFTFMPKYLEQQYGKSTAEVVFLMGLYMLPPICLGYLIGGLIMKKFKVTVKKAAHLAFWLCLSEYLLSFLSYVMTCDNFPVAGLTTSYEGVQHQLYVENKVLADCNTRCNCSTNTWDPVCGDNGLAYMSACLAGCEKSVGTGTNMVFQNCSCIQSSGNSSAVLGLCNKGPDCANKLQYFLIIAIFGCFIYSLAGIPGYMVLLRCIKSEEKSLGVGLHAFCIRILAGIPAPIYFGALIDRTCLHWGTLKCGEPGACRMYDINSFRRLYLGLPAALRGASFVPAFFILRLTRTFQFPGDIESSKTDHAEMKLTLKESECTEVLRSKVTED
Briefly: TP_TRANSPORTER: inhibition of Pravastatin uptake (Pravastatin: 30 uM, E217betaG: 300 uM) in Xenopus laevis oocytes. It counts as functional, cell-based. The settings on record: oocyte.

Data set [2] deals with T1, Solute carrier organic anion transporter family member 1A4. Briefly: TP_TRANSPORTER: inhibition of Pravastatin uptake (Pravastatin: 30 uM, Simvastatin: 300 uM) in Xenopus laevis oocytes. It counts as functional, cell-based. The settings on record: oocyte.
For data set [3] the target is unchanged. Briefly: TP_TRANSPORTER: inhibition of Pravastatin uptake (Pravastatin: 30 uM, BSP: 300 uM) in Xenopus laevis oocytes. It counts as functional, cell-based. The settings on record: oocyte.
Substrate in data set [4]: CC[C@H](C)C(=O)O[C@H]1C[C@H](O)C=C2C=C[C@H](C)[C@H](CC[C@@H](O)C[C@@H](O)CC(=O)O)[C@H]21
Briefly: TP_TRANSPORTER: uptake in Xenopus laevis oocytes. It counts as functional, cell-based, Oocyte.

As to `C[C@]12CC[C@@H]3c4ccc(O)cc4CC[C@H]3[C@@H]1CC[C@@H]2O[C@@H]1O[C@H](C(=O)O)[C@@H](O)[C@H](O)[C@H]1O` [ESTRADIOL 17B GLUCURONIDE], in data set [1], the Activity entry is “inhibitor [+]”. For `CCC(C)(C)C(=O)O[C@H]1C[C@@H](C)C=C2C=C[C@H](C)[C@H](CC[C@@H]3C[C@@H](O)CC(=O)O3)[C@H]21` [SIMVASTATIN], the Activity result in data set [2] is “inhibitor [+]”. `O=C1OC(c2ccc(O)c(S(=O)(=O)[O-])c2)(c2ccc(O)c(S(=O)(=O)[O-])c2)c2c(Br)c(Br)c(Br)c(Br)c21.[Na+].[Na+]` [SULFOBROMOPHTHALEIN SODIUM]: the Activity result in data set [3] was “inhibitor [+]”.

B1: Solute carrier organic anion transporter family member 1A4 (Rattus norvegicus) (protein)
chain: T1 sequence (O35913 whole entry)
As usually defined, the Km is the substrate concentration at which the rate is half of its maximum. With B1, the Km in data set [4] stood at 37.5 µM.

Values taken from ChEMBL document CHEMBL2074065, “Pravastatin, an HMG-CoA reductase inhibitor, is transported by rat organic anion transporting polypeptide, oatp2” (Pharm Res, 1999).
